The values that follow come from patent EP0513997A1, “Antithrombotic compositions” (CHINOIN Gyogyszer és Vegyészeti Termékek Gyára RT., priority 1991, dated 1992).

SMILES strings stand for the structures.

The subject of test [1] is rabbit platelets. Kind of test: In vitro rabbit platelet aggregation induced by ADP, collagen, AA or A 23187 Ca ionophor. It is filed as cell-based. The text has this: We compared on rabbit platelets the in vitro antiaggregatory effect , of acetylsalicylic acid (ASA), salicylic acid (SA). Pentoxifylline (Pentox or Trental), Nospa, Papaverine and Depogen. The aggregation of the rabbit platelets was induced by adenosine diphosphate (ADP), arachidonic acid (AA), Collagen and A 23187 Ca ionophor.

Test [2] has as its system rabbit platelets. Kind of test: Inhibition of PAF induced platelet aggregation. The conditions noted are these: aggregation induced by 1 µM of PAF. It is filed as cell-based.
Test [3] has as its system rabbit platelets. The experiment in a line: Inhibition of PAF induced serotonine release in platelets. The conditions noted are these: release induced by 5 x 10⁻⁸ M of PAF. It is filed as cell-based.
A further test relates to platelet aggregation. The experiment in a line: Ex vivo platelet aggregation after administration. It is filed as in vivo, rabbits.
Another test relates to thrombus formation. The experiment in a line: In vivo thrombus formation on cotton thread in arterio-venous plastic vessel shunt. More on the design: species or system anaesthetised rabbits. On the procedure: We investigated furthermore the in vivo antithrombotic effect of Depogen on anaesthetised rabbits. Depogen was administered intravenously in a dose range of 2.5-7.5 mg/kg. The vena yugularis was connected with the arteria carotis with the help of a plastic vessel. In the plastic vessel a cotton thread was placed, which served as inductor. The amount of thrombus sticked to the surface of the cotton was weighed in the case of the treated and untreated animals (after Herrmann R.G. et al., Proc. Soc. Exp. Biol. Med. 139, 548-552, 1972.)

The test system of test [4] is prostacyclin release from the aorta. The experiment in a line: In vitro prostacyclin (PGI2) release from the aorta. It is filed as cell-based. The following applies: in vitro (Figure 6). The text has this:
From the point of view of PGI2 release Depogen represents a considerable […] compared to Pentoxifylline, as the ratio of the doses inhibiting platelet aggregation and increasing PGI2 release is lower for Depogen than for Pentoxifylline (Table 6) and thus the effective dose ranges of the two actions are closer to each other in the case of Depogen.

For test [5], the system named is thromboxane and prostacyclin level of the blood plasma. The experiment in a line: Thromboxane and prostacyclin level of the blood plasma after 4 days per os administration. The following applies: rat, determined on the 5th day. It is filed as in vivo. On the procedure:
We investigated the effect of Depogen on the thromboxane and prostacyclin level of the blood plasma, in rat, after 4 days of per os administration in doses of 5 mg/kg and 10 mg/kg. On the 5th day we determined the thromboxane and prostacyclin level of the blood plasma (Table 7).

Test [6] has as its system acified ethanol- and indomethacine- induced ulceration. Kind of test: Acidified ethanol- and indomethacin-induced ulceration. The conditions noted are these: rat, in the antiaggregatory dose. It is filed as in vivo. The text has this:
The active ingredients according to the present invention, first of all Depogen, have further advantages compared with the widespreadly used ASA. ASA has significant gastrointestinal adverse effects, such as peptic ulcer, gastric haemorrhage. Depogen has no such adverse effect, and what is more, it has a weak ulcus-preventing activity. According to the measurements, in the antiaggregatory dose it exerts a 25-50 % inhibition on the acified ethanol- and indomethacine- induced ulceration in rat.

Where [7] appears, read: Table 5, unit inferred, aggregation induced by A 23187, read-out: Antiaggregatory Effect A 23187.
Where [8] appears, read: Table 5, unit inferred, aggregation induced by AA, read-out: Antiaggregatory Effect AA.
Setting [9] is: Table 5, unit inferred, aggregation induced by ADP, read-out: Antiaggregatory Effect ADP.
Where [10] appears, read: Table 5, unit inferred, aggregation induced by Collagen, read-out: Antiaggregatory Effect Collagen.
[11] abbreviates: aggregation induced by A-23187 Ca ionophor, in vitro, read-out: IC50 rabbit platelet aggregation, A-23187.
The mark [12] stands for this setting: aggregation induced by ADP, in vitro, read-out: IC50 rabbit platelet aggregation, ADP.
Setting [13] is: aggregation induced by Collagen, in vitro, read-out: IC50 rabbit platelet aggregation, Collagen.
[14] abbreviates: aggregation induced by arachidonic acid (AA), in vitro, read-out: IC50 rabbit platelet aggregation, AA.
Setting [15] is: Oryctolagus cuniculus, Platelet.
[16] abbreviates: p.o. 10 mg/kg/day during 4 days.
Where [17] appears, read: Oryctolagus cuniculus, Platelet, read-out: IC50 rabbit platelet aggregation, A-23187.
[18] abbreviates: Oryctolagus cuniculus, Platelet, read-out: IC50 rabbit platelet aggregation, AA.
Where [19] appears, read: Oryctolagus cuniculus, Platelet, read-out: IC50 rabbit platelet aggregation, ADP.
[20] abbreviates: Oryctolagus cuniculus, Platelet, read-out: IC50 rabbit platelet aggregation, Collagen.
[21] abbreviates: Oryctolagus cuniculus, Platelet, aggregation induced by A-23187 Ca ionophor, in vitro, read-out: IC50 rabbit platelet aggregation, A-23187.
[22] abbreviates: Oryctolagus cuniculus, Platelet, aggregation induced by ADP, in vitro, read-out: IC50 rabbit platelet aggregation, ADP.
[23] abbreviates: Oryctolagus cuniculus, Platelet, aggregation induced by Collagen, in vitro, read-out: IC50 rabbit platelet aggregation, Collagen.
The mark [24] stands for this setting: Oryctolagus cuniculus, Platelet, aggregation induced by arachidonic acid (AA), in vitro, read-out: IC50 rabbit platelet aggregation, AA.

`CCOc1ccc(CC2=NCCc3cc(OCC)c(OCC)cc32)cc1OCC` [Depogen, (3′,4′-diethoxy-benzyl)-6,7-diethoxy-3,4-dihydroisoquinolinium theophyllin-7-acetate]: the IC50 was 228 µM with rabbit platelets [1] (setting [7]); 240 µM in the test with rabbit platelets [1] (setting [8]); 247 µM with rabbit platelets [1] (setting [9]); 140 µM with rabbit platelets [1] (setting [10]); 230 µM with rabbit platelets [1] (setting [11]); 247 µM in the test on rabbit platelets [1] (setting [12]). The IC50 was found to be 140 µM in the test with rabbit platelets [1] (setting [13]), 240 µM in the test on rabbit platelets [1] (setting [14]), 684 µM in the test on rabbit platelets [2] (setting [15]) and 118 µM in the test on rabbit platelets [3] (setting [15]). In addition, in the test with rabbit platelets [1] (compared with ASA, in vitro), the “antiaggregatory effect, times stronger than that of ASA” value is on record as 10-20 times. Also, the inhibition at 2.5 mg/kg in the test with platelet aggregation (Oryctolagus cuniculus, Platelet, iv, dose 2.5 mg/kg intravenously, read-out: Inhibitory Effect % ex vivo aggregation) worked out at 30 ± 4%. Further, in the test with platelet aggregation (Oryctolagus cuniculus, Platelet, iv, dose 5.0 mg/kg intravenously, read-out: Inhibitory Effect % ex vivo aggregation), the inhibition at 5 mg/kg came out at 45 ± 5%. The inhibition at 7.5 mg/kg with platelet aggregation (Oryctolagus cuniculus, Platelet, iv, dose 7.5 mg/kg intravenously, read-out: Inhibitory Effect % ex vivo aggregation) came out at 55 ± 6%. The “antiaggregatory effect in ex vivo experiments” value with platelet aggregation (after oral and intravenous administration (Figures 3 and 4)) was “significant antiaggregatory effect”. Besides, the figures for the “Inhibitory Effect % in vivo thrombus formation” value with thrombus formation (dose 2.5 mg/kg intravenously), in the test with thrombus formation (dose 5.0 mg/kg intravenously) and in the test on thrombus formation (dose 7.5 mg/kg intravenously) were 25± 3%, 45± 5% and 60± 7%, respectively. Further, the “prostacyclin release from the aorta” value in test [4] is listed as “significantly enhances”. Moreover, the PGI2 was 206.4± 11.2 pg/ml of plasma in test [5] (p.o. 5 mg/kg/day during 4 days) and 363.8± 19.3 pg/ml of plasma in test [5] (setting [16]). Moreover, the values for the PGI2/TxA2 in test [5] (p.o. 5 mg/kg/day during 4 days) and in test [5] (setting [16]) were 4.2 and 11, respectively. Further, the results for the TxA2 in test [5] (p.o. 5 mg/kg/day during 4 days) and in test [5] (setting [16]) were 48.7± 3.9 pg/ml of plasma and 33.7± 3.6 pg/ml of plasma, respectively. Besides, the “inhibition on the acified ethanol- and indomethacine- induced ulceration” value in test [6] was 25-50%.

With `COc1ccc(Cc2nccc3cc(OC)c(OC)cc23)cc1OC` [Papaverine, 1-(3′,4′-dimethoxy-benzyl)-6,7-dimethoxy-isoquinoline], the IC50 in the test with rabbit platelets [1] (Oryctolagus cuniculus, Platelet, read-out: Antiaggregatory Effect A 23187) turned out to be 1060 µM; in the test on rabbit platelets [1] (Oryctolagus cuniculus, Platelet, read-out: Antiaggregatory Effect AA), 130 µM; in the test with rabbit platelets [1] (Oryctolagus cuniculus, Platelet, read-out: Antiaggregatory Effect ADP), 190 µM; in the test on rabbit platelets [1] (Oryctolagus cuniculus, Platelet, read-out: Antiaggregatory Effect Collagen), 270 µM; in the test with rabbit platelets [1] (setting [17]) it was 1060 µM; with rabbit platelets [1] (setting [18]), 130 µM. The IC50 in the test on rabbit platelets [1] (setting [19]) worked out at 190 µM; in the test with rabbit platelets [1] (setting [20]) it was 270 µM; in the test with rabbit platelets [2] (setting [15]), 656 µM; with rabbit platelets [3] (setting [15]), 48.2 µM.

In the case of `CC(=O)Oc1ccccc1C(=O)O` [ASA, acetylsalicylic acid, reference compound], the IC50 with rabbit platelets [1] (setting [21]) was determined as 2440 µM; with rabbit platelets [1] (setting [22]) it was 4050 µM; in the test on rabbit platelets [1] (setting [23]) it was 2610 µM; in the test on rabbit platelets [1] (setting [24]) it was 780 µM.

Regarding `O=C(O)c1ccccc1O` [Salicylic acid, salicylic acid, reference compound], the IC50 in the test on rabbit platelets [1] (setting [17]) is 2610 µM; in the test with rabbit platelets [1] (setting [18]) it was 1010 µM; with rabbit platelets [1] (setting [19]) it was 1380 µM; in the test with rabbit platelets [1] (setting [20]) it was 1300 µM.

For the molecule `CCOc1ccc(CC2=NCCc3cc(OCC)c(OCC)cc32)cc1OCC` [Nospa, 1-(3-,4′-diethoxybenzyl)-6,7-diethoxy-3,4-dihydro-iso-quinoline], the IC50 with rabbit platelets [1] (setting [7]) worked out at 840 µM; with rabbit platelets [1] (setting [8]), 810 µM; in the test with rabbit platelets [1] (setting [9]) it was 740 µM; in the test with rabbit platelets [1] (setting [10]) it was 580 µM; in the test on rabbit platelets [1] (setting [11]), 840 µM; with rabbit platelets [1] (setting [12]) it was 740 µM. Also, the IC50 in the test on rabbit platelets [1] (setting [13]) came to 580 µM; in the test on rabbit platelets [1] (setting [14]), 810 µM; in the test with rabbit platelets [2], 756 µM; in the test with rabbit platelets [3] it was 96 µM.

With `CC(=O)CCCCn1c(=O)c2c(ncn2C)n(C)c1=O` [Pentoxifylline, reference compound], the IC50 in the test on rabbit platelets [1] (Oryctolagus cuniculus, Platelet, Table 5, unit inferred, aggregation induced by AA, read-out: Antiaggregatory Effect AA) stood at 1870 µM; in the test with rabbit platelets [1] (Oryctolagus cuniculus, Platelet, Table 5, unit inferred, aggregation induced by ADP, read-out: Antiaggregatory Effect ADP), 2660 µM; in the test with rabbit platelets [1] (Oryctolagus cuniculus, Platelet, Table 5, unit inferred, aggregation induced by Collagen, read-out: Antiaggregatory Effect Collagen), 2050 µM; with rabbit platelets [1] (setting [21]) it was 2770 µM; in the test with rabbit platelets [1] (setting [22]), 2660 µM; with rabbit platelets [1] (setting [23]), 2050 µM. Also, the IC50 came out at 1870 µM with rabbit platelets [1] (setting [24]), 1000 µM in the test on rabbit platelets [2] (setting [15]) and 800 µM with rabbit platelets [3] (setting [15]).
